From patent US20180153995A1, “USE OF ANTIMICROBIAL POLYMERS FOR RE-SENSITIZATION OF MICROORGANISMS UPON EMERGENCE OF RESISTANCE TO ANTI-MICROBIAL AGENTS” (Technion Research & Development Foundation Limited, priority 2008, published 2018)
Where two headings read alike, the source gives them in different places.

Assays:
[1] = test system: ATCC 29213; test: microbe, parasite or virus in culture; type: cell-based, Staphylococcus aureus; conditions: Staphylococcus aureus, ATCC29213; read-out: MIC
Method: (§1) MICs were determined by microdilution susceptibility testing in 96-well plates (by Nunc) using inocula of 10^5 bacteria per ml. Cell populations were evaluated by optical density measurements at 620 nm and were calibrated against a set of standards. Hundred (100) μl of a bacterial suspension were added to 100 μl of culture medium (control) or to 100 μl of culture medium containing various polymer concentrations in 2-fold serial dilutions. Inhibition of proliferation was determined by optical density measurements at 620 nm after an incubation period of 24 hours at 37° C.
(§2) The fractionary inhibitory (FIC) concentration index for combinations of two antimicrobial agents was calculated as follows: FIC index=FICA+FICB=A/MICA+B/MICB where A and B are the MIC values of agent A and agent B in the combination, MICA and MICB are the MICs of agent A and agent B alone, and FICA and FICB are the FICs of agent A and agent B.
(§3) The FIC indexes were interpreted as follows: less than 0.5 indicates a clear re-sensitizing effect; from 0.5 to 4 indicates a marginal or null re-sensitizing effect; and over 4 indicates antagonism.

[2] = test system: MRSA 15918; test: microbe, parasite or virus in culture; type: cell-based, Staphylococcus aureus; conditions: Staphylococcus aureus, MRSA; read-out: MIC
Method: as §1, §2, §3

[3] = test system: MRSA 15903; test: Sub-MIC time-kill curves (CFU counts); type: cell-based, Staphylococcus aureus
Method: At the specified time points of incubation (37° C. under shaking), cultures were subjected to serial 10-fold dilutions (up to 10^6) by adding 50 μl of sample to 450 μl saline (0.85% NaCl). Cell counts were determined using the drop plate method (three 20-μl drops onto LB-agar plates). Plates were incubated at 37° C. and colonies were counted for the calculation after incubation for 24 hours.

[4] = test system: E. coli D21; test: Antibiotic MIC with or without sub-MIC polymer (Tables 20, 21); type: cell-based, Escherichia coli
[5] = test system: E. coli G11a1; test: as above; type: cell-based, Escherichia coli
Method: as §1

[6] = test system: E. coli AB301 (wild type); test: Erythromycin MIC with or without sub-MIC polymer; type: cell-based, Escherichia coli
[7] = test system: E. coli N281 (L22 mutation); type: cell-based, Escherichia coli; conditions: E. coli N281 L22 mutation

## Cc1onc(-c2ccccc2)c1C(=O)N[C@@H]1C(=O)N2[C@@H]1SC(C)(C)[C@@H]2C(=O)O [Oxacillin, oxacillin]
[1]
  MIC: 0.09 µg/mL
[2]
  MIC: 64 µg/mL
[3]; 24 hours, oxacillin 0.78 μM + NC12(KNC12K)2NH2 2.1 μM
  reduction of bacterial counts compared to the most active single agent: 4.7 log10 CFU/ml
[3]; oxacillin 0.78 μM + NC12(KNC12K)2NH2 2.1 μM
  surviving organisms below the starting inoculum: 0.76 log10 CFU/ml
[3]; sub-MIC time-kill, single agent
  bactericidal activity, agent alone: no bactericidal activity

## CC1(C)S[C@@H]2[C@H](NC(=O)Cc3ccccc3)C(=O)N2[C@H]1C(=O)O [Penicillin G, penicillin G]
[4]; antibiotic alone (Table 20)
  Antibiotic MIC, None: 512 µg/mL
[4]; antibiotic alone (Table 21)
  Antibiotic MIC, None: 512 µg/mL
[4]; polymer at ¼ of its MIC
  Antibiotic MIC in presence of C12K(NC8K)5NH2 (SEQ ID NO: 3), +¼ MIC: 512 µg/mL
  Antibiotic MIC in presence of C12K(NC8K)7NH2 (SEQ ID NO: 4), +¼ MIC: 512 µg/mL
[4]; polymer at ½ of its MIC
  Antibiotic MIC in presence of C12K(NC8K)5NH2 (SEQ ID NO: 3), +½ MIC: 256 µg/mL
  Antibiotic MIC in presence of C12K(NC8K)7NH2 (SEQ ID NO: 4), +½ MIC: 256 µg/mL
[4]; polymer at ⅓ of its MIC
  Antibiotic MIC in presence of C12K(NC8K)5NH2 (SEQ ID NO: 3), +⅓ MIC: 256 to 512 µg/mL
  Antibiotic MIC in presence of C12K(NC8K)7NH2 (SEQ ID NO: 4), +⅓ MIC: 512 µg/mL
[5]; antibiotic alone (Table 20)
  Antibiotic MIC, None: 512 µg/mL
[5]; antibiotic alone (Table 21)
  Antibiotic MIC, None: 512 µg/mL

## CC[C@H]1OC(=O)[C@H](C)[C@@H](O[C@H]2C[C@@](C)(OC)[C@@H](O)[C@H](C)O2)[C@H](C)[C@@H](O[C@@H]2O[C@H](C)C[C@H](N(C)C)[C@H]2O)[C@](C)(O)C[C@@H](C)C(=O)[C@H](C)[C@@H](O)[C@]1(C)O [Erythromycin, erythromycin]
[6]; +¼ MIC C12K(NC8K)5NH2
  Antibiotic MIC: 32 µg/mL
[6]; +¼ MIC C12K(NC8K)7NH2
  Antibiotic MIC: 32 µg/mL
[6]; +½ MIC C12K(NC8K)5NH2
  Antibiotic MIC: 8 µg/mL
[6]; +½ MIC C12K(NC8K)7NH2
  Antibiotic MIC: 4 to 8 µg/mL
[6]; +⅓ MIC C12K(NC8K)5NH2
  Antibiotic MIC: 16 to 32 µg/mL
[6]; +⅓ MIC C12K(NC8K)7NH2
  Antibiotic MIC: 16 to 32 µg/mL
[7]; +¼ MIC C12K(NC8K)5NH2
  Antibiotic MIC: 512 µg/mL
[7]; +¼ MIC C12K(NC8K)7NH2
  Antibiotic MIC: >512-512 μg/ml
[7]; +½ MIC C12K(NC8K)5NH2
  Antibiotic MIC: 16 to 32 µg/mL
[7]; +⅓ MIC C12K(NC8K)7NH2
  Antibiotic MIC: 512 µg/mL
[7]; no OAK, Table 18
  Antibiotic MIC: >512 µg/mL
[7]; no OAK, Table 19
  Antibiotic MIC: >512 µg/mL
